We go through 16 molecules from patent publication US20230279025A1, “KRAS G12D INHIBITORS” (Mirati Therapeutics, Inc., priority 2020, published 2023).

In this test the target is KRas G12D (Homo sapiens (Human), UniProt P01116, G12D). Put plainly: KRas G12D Binding Assay (TR-FRET displacement of Cy5 labelled tracer). Particulars: GDP-loaded KRAS G12D (amino acids 1:169), 60 minute incubation at 22° C. The protocol:
After a 60 minute incubation at 22° C., the reaction was measured using a PerkinElmer EnVision multimode plate reader via TR-FRET dual wavelength detection, and the percent of control (POC) calculated using a ratiometric emission factor. […] The POC values were fit to a 4-parameter logistic curve and the IC50 value was determined as the concentration where the curve crosses 50 POC.
ND stands for “not determined.”

KRas G12D, sequence (P01116 other isoform, or with tags, fused parts or gaps G12D): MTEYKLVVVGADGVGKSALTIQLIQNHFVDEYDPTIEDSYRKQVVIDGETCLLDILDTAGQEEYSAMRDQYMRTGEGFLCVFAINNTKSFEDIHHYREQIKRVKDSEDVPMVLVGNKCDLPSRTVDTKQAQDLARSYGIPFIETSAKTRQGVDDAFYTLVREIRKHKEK

By IC50 is commonly meant the concentration that inhibits the measured activity by half. A high value points to weaker potency in that assay. `COC(c1ccc(O)cc1-c1ncc2c(N3CC4CCC(C3)N4)nc(OC[C@@]34CCCN3C[C@H](F)C4)nc2c1F)C(F)(F)F` (stereo in doubt) [Example 390, 3-(4-((1R,5S)-3,8-diazabicyclo[3.2.1]octan-3-yl)-8-fluoro-2-((2-fluorotetrahydro-1H-pyrrolizin-7a(5H)-yl)methoxy)pyrido[4,3-d]pyrimidin-7-yl)-4-(2,2,2-trifluoro-1-methoxyethyl)phenol] returned an IC50 of 36.8 nM.

Turning to `Cc1cc(-c2ncc3c(N4CC5CCC(C4)N5)nc(OC[C@@]45CCCN4C[C@H](F)C5)nc3c2F)c2cn[nH]c2c1` (stereo in doubt) [Example 391, 4-((1R,5S)-3,8-diazabicyclo[3.2.1]octan-3-yl)-8-fluoro-2-((2-fluorotetrahydro-1H-pyrrolizin-7a(5H)-yl)methoxy)-7-(6-methyl-1H-indazol-4-yl)pyrido[4,3-d]pyrimidine], the IC50 was determined as 662 nM.

For `CC(C)c1ccc(O)cc1-c1ncc2c(N3CC4CCC(C3)N4)nc(OC[C@@]34CCCN3C[C@H](F)C4)nc2c1F` (stereo in doubt) [Example 399, 3-(4-((1R,5S)-3,8-diazabicyclo[3.2.1]octan-3-yl)-8-fluoro-2-((2-fluorotetrahydro-1H-pyrrolizin-7a(5H)-yl)methoxy)pyrido[4,3-d]pyrimidin-7-yl)-4-isopropylphenol], the IC50 came to 2.7 nM.

As to `Cc1c(Cl)cc2[nH]ncc2c1-c1ncc2c(N3CC4CCC(C3)N4)nc(OC[C@@]34CCCN3C[C@H](F)C4)nc2c1F` (stereo in doubt) [Example 401, 4-((1R,5S)-3,8-diazabicyclo[3.2.1]octan-3-yl)-7-(6-chloro-5-methyl-1H-indazol-4-yl)-8-fluoro-2-((2-fluorotetrahydro-1H-pyrrolizin-7a(5H)-yl)methoxy)pyrido[4,3-d]pyrimidine], the IC50 stood at 2.8 nM.

As for `CC(C)(O)c1ccccc1-c1ncc2c(N3CC4CCC(C3)N4)nc(OC[C@@]34CCCN3C[C@H](F)C4)nc2c1F` (stereo in doubt) [Example 402, 2-(2-(4-((1R,5S)-3,8-diazabicyclo[3.2.1]octan-3-yl)-8-fluoro-2-((2-fluorotetrahydro-1H-pyrrolizin-7a(5H)-yl)methoxy)pyrido[4,3-d]pyrimidin-7-yl)phenyl)propan-2-ol], the IC50 came to 8020 nM.

In turn, `CO[C@H]1CN2CCC[C@]2(COc2nc(N3CC4CCC(C3)N4)c3cnc(-c4cc(O)cc5cccc(F)c45)c(F)c3n2)C1` (stereo in doubt) [Example 406, 4-(4-((1R,5S)-3,8-diazabicyclo[3.2.1]octan-3-yl)-8-fluoro-2-((2-methoxytetrahydro-1H-pyrrolizin-7a(5H)-yl)methoxy)pyrido[4,3-d]pyrimidin-7-yl)-5-fluoronaphthalen-2-ol] gave an IC50 of 0.9 nM.

`CC(C)(F)c1ccccc1-c1ncc2c(N3CC4CCC(C3)N4)nc(OC[C@@]34CCCN3C[C@H](F)C4)nc2c1F` (stereo in doubt) [Example 407, 4-((1R,5S)-3,8-diazabicyclo[3.2.1]octan-3-yl)-8-fluoro-7-(2-(2-fluoropropan-2-yl)phenyl)-2-((2-fluorotetrahydro-1H-pyrrolizin-7a(5H)-yl)methoxy)pyrido[4,3-d]pyrimidine]: the IC50 is 560 nM.

Molecule `N#Cc1ccccc1-c1ncc2c(N3CC4CCC(C3)N4)nc(OC[C@@]34CCCN3C[C@H](F)C4)nc2c1F` (stereo in doubt) [Example 409, 2-(4-((1R,5S)-3,8-diazabicyclo[3.2.1]octan-3-yl)-8-fluoro-2-((2-fluorotetrahydro-1H-pyrrolizin-7a(5H)-yl)methoxy)pyrido[4,3-d]pyrimidin-7-yl)benzonitrile] yielded an IC50 of 2230 nM.

With `C#Cc1cccc2cc(O)cc(-c3ncc4c(N5CC6CCC(C5)N6)nc(OC[C@@]56CCCN5C[C@H](OC)C6)nc4c3F)c12` (stereo in doubt) [Example 410, 4-(4-((1R,5S)-3,8-diazabicyclo[3.2.1]octan-3-yl)-8-fluoro-2-((2-methoxytetrahydro-1H-pyrrolizin-7a(5H)-yl)methoxy)pyrido[4,3-d]pyrimidin-7-yl)-5-ethynylnaphthalen-2-ol], the IC50 worked out at 1 nM.

As to `Fc1c(-c2ccccc2Cl)ncc2c(N3CC4CCC(C3)N4)nc(OC[C@@]34CCCN3C[C@H](F)C4)nc12` (stereo in doubt) [Example 414, 4-((1R,5S)-3,8-diazabicyclo[3.2.1]octan-3-yl)-7-(2-chlorophenyl)-8-fluoro-2-((2-fluorotetrahydro-1H-pyrrolizin-7a(5H)-yl)methoxy)pyrido[4,3-d]pyrimidine], the IC50 was determined as 873 nM.

Turning to `Fc1c(-c2cnccc2C(F)(F)F)ncc2c(N3CC4CCC(C3)N4)nc(OC[C@@]34CCCN3C[C@H](F)C4)nc12` (stereo in doubt) [Example 415, 4-((1R,5S)-3,8-diazabicyclo[3.2.1]octan-3-yl)-8-fluoro-2-((2-fluorotetrahydro-1H-pyrrolizin-7a(5H)-yl)methoxy)-7-(4-(trifluoromethyl)pyridin-3-yl)pyrido[4,3-d]pyrimidine], the IC50 amounted to 2580 nM.

With `CC(C)Oc1ccccc1-c1ncc2c(N3CC4CCC(C3)N4)nc(OC[C@@]34CCCN3C[C@H](F)C4)nc2c1F` (stereo in doubt) [Example 416, 4-((1R,5S)-3,8-diazabicyclo[3.2.1]octan-3-yl)-8-fluoro-2-((2-fluorotetrahydro-1H-pyrrolizin-7a(5H)-yl)methoxy)-7-(2-isopropoxyphenyl)pyrido[4,3-d]pyrimidine], the IC50 was determined as 1950 nM.

`CC(C)Cc1ccccc1-c1ncc2c(N3CC4CCC(C3)N4)nc(OC[C@@]34CCCN3C[C@H](F)C4)nc2c1F` (stereo in doubt) [Example 417, 4-((1R,5S)-3,8-diazabicyclo[3.2.1]octan-3-yl)-8-fluoro-2-((2-fluorotetrahydro-1H-pyrrolizin-7a(5H)-yl)methoxy)-7-(2-isobutylphenyl)pyrido[4,3-d]pyrimidine] displayed an IC50 of 595 nM.

`CN1CCC[C@H]1COc1nc(N2CC3C[C@@H](O)C(C2)N3)c2cnc(-c3cc(O)cc4ccccc34)c(F)c2n1` (stereo partly drawn) [Example 31, 3-(8-fluoro-7-(3-hydroxynaphthalen-1-yl)-2-(((S)-1-methylpyrrolidin-2-yl)methoxy)pyrido[4,3-d]pyrimidin-4-yl)-3,8-diazabicyclo[3.2.1]octan-6-ol] registered an IC50 of 1.6 nM.

In turn, `O[C@@H]1C[C@@H]2CN(c3nc(OCCc4ccc(F)cn4)nc4c(F)c(-c5cccc6cccc(Cl)c56)ncc34)C[C@H]1N2` [Example 32, (1R,5R,6R)-3-(7-(8-chloronaphthalen-1-yl)-8-fluoro-2-(2-(5-fluoropyridin-2-yl)ethoxy)pyrido[4,3-d]pyrimidin-4-yl)-3,8-diazabicyclo[3.2.1]octan-6-ol] yielded an IC50 of 2140 nM.

For `Oc1cc(-c2ncc3c(N4C[C@H]5CC[C@@H](C4)N5)nc(OCC45CCCN4CCC5)nc3c2F)c2c(Cl)cccc2c1` [Example 36, 4-(4-((1R,5S)-3,8-diazabicyclo[3.2.1]octan-3-yl)-8-fluoro-2-((tetrahydro-1H-pyrrolizin-7a(5H)-yl)methoxy)pyrido[4,3-d]pyrimidin-7-yl)-5-chloronaphthalen-2-ol], the IC50 came out at 0.4 nM.
